Measured values published in patent publication US11899025B2, “Pharmaceutical composition for preventing or treating neurodegenerative diseases comprising COX2 acetylating agent as active ingredient” (KYUNGPOOK NATIONAL UNIVERSITY INDUSTRY-ACADEMIC COOPERATION …, priority 2018, dated 2024).

B1: SphK1 (Homo sapiens) (protein)
chain: MDPAGGPRGVLPRPCRVLVLLNPRGGKGKALQLFRSHVQPLLAEAEISFTLMLTERRNHARELVRSEELGRWDALVVMSGDGLMHEVVNGLMERPDWETAIQKPLCSLPAGSGNALAASLNHYAGYEQVTNEDLLTNCTLLLCRRLLSPMNLLSLHTASGLRLFSVLSLAWGFIADVDLESEKYRRLGEMRFTLGTFLRLAALRTYRGRLAYLPVGRVGSKTPASPVVVQQGPVDAHLVPLEEPVPSHWTVVPDEDFVLVLALLHSHLGSEMFAAPMGRCAAGVMHLFYVRAGVSRAMLLRLFLAMEKGRHMEYECPYLVYVPVVAFRLEPKDGKGVFAVDGELMVSEAVQGQVHPNYFWMVSGCVEPPPSWKPQQMPPPEEPL

Assays:
APP/PS1 mice = test: Alzheimer's animal model (APP/PS1 mice): immunofluorescence, Thioflavin S, Morris Water Maze; format: in vivo, mouse; conditions: 7-month-old APP/PS1 mice, 5 mg/kg N-acetyl sphingosine, 1 mg/kg FTY720 or 3 uM S1P daily for 4 weeks, intraperitoneal; for microglia (Iba1) in brain cortex vs APP/PS1 mice: FIG. 9a; for astrocytes (GFAP) in brain cortex vs APP/PS1 mice: FIG. 9b; for amount of Aβ / Aβ deposition (Thioflavin S) vs APP/PS1 mice: FIG. 9c; for memory and cognition (Morris Water Maze) vs APP/PS1 mice: FIG. 9d
From the text: It has been approved for mouse experiments by the Kyungpook National University Institutional Animal Care and Use Committee (IACUC). A transgenic mouse line overexpressing APPswe (hAPP695swe) or PS1 (presenilin-1M146V) based on C57BL/6 mice (Charles River, UK) was used. [Hereinafter, APP mouse: mouse overexpressing APPswe, PS1 mouse: mouse overexpressing presenilin-1M146V; GlaxoSmithKline]. As an Alzheimer's (AD) animal model, SphK1 tg (SphK1 gene overexpressing mouse) was crossed with APP mice and APP/PS1 mice to prepare APP/PS1/SphK1 tg mice. Niemanpick (NP-C) animal model, Balb/C (Orient, Wild type), NPC mutant mouse lacking NPC1 gene (Provided by Riken, Japan, NP-C mice; less weight than normal mice of the same age, and severe motor function loss from 4 to 6 weeks of age, limb tremors and seizures appear, and lifespan is approximately 9 to 10 weeks. Is) was used. As an animal model for amyotrophic lateral sclerosis (ALS), a transgenic mouse (FUS) line overexpressing RUS R521C based on C57BL/6 mice (Charles River, UK) was used.
After fixing the cerebral and hippocampus of the mouse, anti-20G10 (mouse, 1:1000) against amyloid-β (Aβ) 42 and anti-G30 (rabbit, 1:1000) against Aβ 40, anti-MAP2 (chicken, 1:2000), anti-Synaptophysin (mouse, 1:100), anti-Synapsin1 (rabbit, 1:500), anti-PSD95 (mouse, 1:100), anti-Iba-1 (rabbit, 1:500), Anti-GFAP (rabbit, 1:500) was cultured together. The site was analyzed using a laser scanning confocal microscope or Olympus BX51 microscope equipped with Fluoview SV1000 imaging software (Olympus FV1000, Japan). Metamorph software (Molecular Devices) was used to quantify the percentage of the area of the stained area relative to the area of the total tissue.
In order to confirm the potential effect on learning and memory, MWM (Morris water maze) and fear conditioning experiments were performed. MWM learned the task 4 times a day for 10 days for the mice, the platform was removed on the 11th day, and a probe trial was performed. On the first day of Fear conditioning, the mice were placed in a conditioning chamber, and sound stimulation (10 kHz, 70 dB) and electrical stimulation (0.3 mA, 1 s) were given. On the second day, memory for the space was checked without stimulation in the same conditioning chamber as on the first day, and on the third day, a memory test for fear was performed when only sound stimulation was given in another conditioning chamber. An open field test was performed to evaluate motor ability and immediate activity. In the open field test, the mice were placed in a square box for 10 minutes to measure the overall exercise power, time, and distance.
(§1) In order to measure the neuroinflammatory resolution factor, after culturing neurons from mouse cerebrum, CM was prepared by treatment with 10 nM N-acetyl sphingosine 1 phosphate (Toronto Research chemicals, C262710) and N-acetyl sphingosine (Sigma, 01912). For COX2 acetylation analysis, neurons were cultured from mouse cerebrum and then treated with 2 uCi [^14C]N-acetyl sphingosine (ARC, ARC1024). In addition, for in vivo experiments, 7-month-old APP/PS1 mice were injected with 5 mg/kg N-acetyl sphingosine (Sigma, 01912), 1 mg/kg FTY720 and 3 uM S1P daily for 4 weeks via intraperitoneal injection. 1 month-old NPC mice were injected with 5 mg/kg N-acetyl sphingosine (Sigma, 01912) and 2-month-old FUS mice with 30 mg/kg N-acetyl sphingosine (Sigma, 01912) daily for 4 weeks via subcutaneous injection.
The present inventors confirmed AD lesions by injecting N-acetyl sphingosine, one of the COX2 acetylating agents identified through the above experiment, into an APP/PS1 animal model. First, in order to determine the effect of N-acetyl sphingosine on the neuroinflammatory response by secreting neuroinflammatory resolution factor, changes in microglia and astrocytes were observed. […]

APP/PS1 neurons = test: neuroinflammatory resolution factor (SPMs) secretion in APP/PS1 neurons after COX2 acetylating agent treatment; format: cell-based, mouse; conditions: 10 nM; FIG. 8b
Procedure: A commercially available ELISA kit (Biosource) was used, and the hemispheres of mice were homogenized and placed in a buffer containing 0.02M guanidine to prepare a sample for Aβ ELISA. In order to measure the neuroinflammatory resolution factor, conditioned media (CM) was prepared after culturing neurons from mouse cerebrum. Thereafter, according to the manufacturer's manual, ELISA for Aβ and SPM was performed.
as §1
First, in order to confirm whether the selected compounds promote the secretion of neuroinflammatory resolution factor in neurons, after treatment with N-acetyl sphingosine 1 phosphate or N-acetyl sphingosine in APP/PS1 neurons, the expression levels of neuroinflammatory resolution factor were confirmed. As a result, it was confirmed that the expression levels of LxA4 and RvE1 in neurons of APP/PS1 mice were recovered when treated with N-acetyl sphingosine 1 phosphate or N-acetyl sphingosine (FIG. 8b).

SphK1 = SphK1 (Homo sapiens, UniProt Q9NYA1); test: dissociation of acetyl-CoA from the acetyl-CoA:SphK1 complex, equilibrium dialysis; format: binding
[1] = substrate: CC(=O)SCCNC(=O)CCNC(=O)[C@H](O)C(C)(C)COP(=O)(O)OP(=O)(O)OC[C@H]1O[C@@H](n2cnc3c(N)ncnc32)[C@H](O)[C@@H]1OP(=O)(O)O; test: purified protein, by the assay type; conditions: other: in the presence of 10 mM sphingosine; [3H]acetyl-CoA; FIG. 1a

Row | Molecule | microglia (Iba1) in brain cortex vs APP/PS1 mice (APP/PS1 mice) | astrocytes (GFAP) in brain cortex vs APP/PS1 mice (APP/PS1 mice) | amount of Aβ / Aβ deposition (Thioflavin S) vs APP/PS1 mice (APP/PS1 mice) | memory and cognition (Morris Water Maze) vs APP/PS1 mice (APP/PS1 mice) | also measured
1 | CCCCCCCCc1ccc(CCC(N)(CO)CO)cc1 [FTY720] | no difference | no difference | no effect | no effect | –
2 | CCCCCCCCCCCCC/C=C/[C@@H](O)[C@@H](N)COP(=O)(O)O [S1P, sphingosine-1-phosphate] | no difference | no difference | no effect | no effect | –
3 | CCCCCCCCCCCCC/C=C/[C@@H](O)[C@H](COP(=O)(O)O)NC(C)=O [N-acetyl sphingosine 1 phosphate] | – | – | – | – | expression level of LxA4 in neurons of APP/PS1 mice (APP/PS1 neurons): recovered; expression level of RvE1 in neurons of APP/PS1 mice (APP/PS1 neurons): recovered
4 | CC(=O)SCCNC(=O)CCNC(=O)[C@H](O)C(C)(C)COP(=O)(O)OP(=O)(O)OC[C@H]1O[C@@H](n2cnc3c(N)ncnc32)[C@H](O)[C@@H]1OP(=O)(O)O [acetyl-CoA] | – | – | – | – | Kd (SphK1): 6.8 µM
5 | B1 | – | – | – | – | Km [1]: 58.2 µM; kcat [1]: 0.000308 s⁻¹
